Key:
breast cancer in mice = conditions: orthotopic breast cancer, versus unconjugated paclitaxel; cited from earlier work
[1] = test system: NT4 binding to membrane receptors on PANC-1 cells; test: Flow cytometry, inhibition of NT4 binding to PANC-1 cells by GAGs; type: cell-based, human; conditions: 1 μM biotinylated NT4, 100 μg/ml GAGs, PBS with 5 mM EDTA and 0.5% BSA, Streptavidin-FITC
[2] = test system: NT4 binding to endocytic receptors; design: method as in PMID 23713525; conditions: cited from earlier work
[3] = test system: NT4 binding to PgsA-745 cells; test: Flow cytometry, inhibition of NT4 binding to PgsA-745 cells by heparin; type: cell-based, Chinese hamster; conditions: 1 μM biotinylated NT4, 100 μg/ml heparin
Protocol: PANC-1 human pancreas adenocarcinoma, CHO-K1 Chinese hamster ovary cell and PgsA-745 Chinese hamster ovary cell mutant deficient in xylosyltransferase (UDP-D-xylose: serine-1,3-D-xylosyltransferase) were grown in DMEM Medium (for PANC-1 and CHO-K1) and F12 K Medium supplemented with 10% fetal bovine serum, 200 μg/ml glutamine, 100 μg/ml streptomycin and 60 μg/ml penicillin. Cell lines were purchased from ATCC (The Global Bioresource Center).
All experiments were performed using 1 × 10^5 PANC-1, CHO-K1 or PgsA-745 cells in 96-well U-bottom plates. […] Cells were finally incubated with 1 μg/ml Streptavidin-FITC. All dilutions were performed in PBS, containing 5 mM EDTA and 0.5% BSA.
10000 events were analyzed in a BD FACS Calibur (Becton Dickinson, NJ USA). Results were analyzed by FCS Express 4 Plus software.

[4] = test system: cancer cell lines and human cancer surgical samples; design: method as in 2 sources, one per row (each row's own in cited_ref): ref 1-6 = [1]; PMID 17766836; doi:10.1158/1535-7163.MCT-07-0164; Falciani C. et al. Synthesis and biological activity of stable branched neurotensin peptides for tumor targeting . Mol. Cancer Ther. 6 , 2441 − 2448 ( 2007 ). 17766836 10.1158/1535-7163.MCT-07-0164 || [2]; PMID 20222099; doi:10.1002/cmdc.200900527; Falciani C. et al. Design and in vitro evaluation of branched peptide conjugates: turning nonspecific cytotoxic drugs into tumor-selective agents . ChemMedChem. 5 , 567 − 574 ( 2010 ). 20222099 10.100 || [3]; PMID 20578987; doi:10.2174/156800910793605875; Falciani C. et al. Modular branched neurotensin peptides for tumor target tracing and receptor-mediated therapy: a proof-of-concept . Curr. Cancer Drug Targets. 10 , 695 − 704 ( 2010 ). 20578987 10.21 || [4]; PMID 21370475; doi:10.1002/cmdc.201000463; Falciani C. et al. Target-selective drug delivery through liposomes labeled with oligobranched neurotensin peptides . ChemMedChem. 6 , 678 − 685 ( 2011 ). 21370475 10.1002/cmdc.201000463 || [5]; PMID 25984525; doi:10.1155/2015/173507; Brunetti J. et al. Neurotensin branched Peptide as a tumor-targeting agent for human bladder cancer . Biomed Res Int. 2015 , 173507 , doi: 10.1155/2015/173507 ( 2015 ). 25984525 PMC4423026 ||| ref 7 = [7]; PMID 23713525; doi:10.1021/jm400329p; Falciani C. et al. Cancer selectivity of tetrabranched neurotensin peptides is generated by simultaneous binding to sulfated glycosaminoglycans and protein receptors . J Med Chem. 56 , 5009 – 18 ( 201); conditions: compared with NT4; cited from earlier work

CC(=O)O[C@H]1C(=O)[C@@]2(C)[C@H]([C@H](OC(=O)c3ccccc3)[C@]3(O)C[C@H](OC(=O)[C@H](O)[C@@H](NC(=O)c4ccccc4)c4ccccc4)C(C)=C1C3(C)C)[C@]1(OC(C)=O)CO[C@@H]1C[C@@H]2O [unconjugated paclitaxel, paclitaxel]
tumor regression (breast cancer in mice): not achieved with unconjugated paclitaxel

heparin
inhibition of NT4 binding (in words) [1]: complete inhibition | inhibition of NT4 binding to endocytic receptors [2]: completely inhibited by heparin | inhibition of NT4 binding to PgsA-745 cells [3]: still completely inhibited by heparin

hyaluronic acid
inhibition of NT4 binding (in words) [1]: neither binding to NT4 or inhibition of NT4 binding to cancer cell membranes was detected

native neurotensin: monomeric native neurotensin
high cancer selectivity [4]: not shared by monomeric native neurotensin
